Measured values as given in US20250003011A1, “SAMPLE PREPARATION METHODS USING MODIFIED BASES FOR RAPID IDENTIFICATION AND SEQUENCING” (priority 2023, published 2025).

Key:
Manta DNA polymerase = target: T1, Manta DNA polymerase (Geobacillus stearothermophilus, UniProt P52026); assay: Elongation (fill-in) assay on 200-mer template with modified uridine triphosphates; assay type: biochemical; conditions: modified nucleotide replaces dTTP at 100%; 65° C., 30 min
T1 construct: Bst DNA Polymerase, Large Fragment (e.g., Manta®); purchased
T1 sequence (P52026 289-876 limits assumed): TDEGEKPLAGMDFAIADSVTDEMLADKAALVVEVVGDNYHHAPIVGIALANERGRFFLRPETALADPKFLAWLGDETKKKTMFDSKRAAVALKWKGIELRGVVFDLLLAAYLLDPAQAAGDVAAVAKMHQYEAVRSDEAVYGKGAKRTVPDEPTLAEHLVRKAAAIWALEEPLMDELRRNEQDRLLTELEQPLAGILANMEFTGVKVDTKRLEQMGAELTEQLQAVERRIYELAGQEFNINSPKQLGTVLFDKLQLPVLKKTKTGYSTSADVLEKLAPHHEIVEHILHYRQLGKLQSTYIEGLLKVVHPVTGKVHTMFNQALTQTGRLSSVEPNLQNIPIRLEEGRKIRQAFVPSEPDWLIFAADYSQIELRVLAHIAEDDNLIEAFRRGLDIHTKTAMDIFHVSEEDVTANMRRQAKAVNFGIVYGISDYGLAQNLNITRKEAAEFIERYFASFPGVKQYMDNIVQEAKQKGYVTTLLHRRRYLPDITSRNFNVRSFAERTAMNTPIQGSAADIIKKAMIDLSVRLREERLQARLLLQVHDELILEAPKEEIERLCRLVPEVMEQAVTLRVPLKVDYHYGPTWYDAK
Method: (§1) A synthetic template of 200 bases was used to determine the capacity of Deep Vent and Manta DNA polymerase to integrate modified uridine triphosphate. The synthesis was initiated from a 20 bases complementary oligonucleotide and various conditions were tested. In lanes 1 and 6, all triphosphate nucleotide except dTTP were added in the reaction mix according to the manufacturer recommendation (negative control) to determine if the polymerase is stopped at positions where it needs to integrate a thymidine. In lane 2, dTTP was added to the reaction mix as the positive control where full length construct should be obtained. In lanes 3 and 7, 4 and 8 and 5 and 9, IdU, FdU and CldU were added to the reaction mix respectively to replace at 100% the dTTP. […] This is not the case for the Manta DNA polymerase as the only product observed is where the polymerase should have integrated a thymidine.
(§2) In order to identify the proper DNA polymerase that can utilise modified uridine triphosphate, we performed an elongation assay with different DNA polymerases and various combination of nucleotide mixes, using a 22-mer primer (PS2508, SEQ ID NO: 1) annealed to a 200-mer template (PS2509, SEQ ID NO:2). As the template contains a lot of instances of adenines, there are multiple positions where the polymerase must be able to incorporate uridine to be able to produce full length fill in reaction.
(§3) On the other hand, when dTTP or dUTP was replaced with a modified dUTP, a full-length reaction product was detected for both Manta™ and DeepVent DNA polymerases.
(§4) The conditions for the fill in reaction were as follow: dATP, dGTP, dCTP and Iodo dUTP were prepared in a mix at 500 μM each and used at a final concentration of 100 μM final; 1 μl of Manta™ or DeepVent polymerase were used on 10 pmoles of the 200-mer (PS2509) with the 22-mer primer (PS2508) pre-annealed to initiate the fill-in.
(§5) The incubation was done for 30 min at 65° C. for the Manta or 72° C. for the DeepVent, in a MiniAmp thermalCycler (Applied Biosystems) with lid at 105° C. to prevent evaporation.

DeepVent DNA polymerase = target: T2, DeepVent DNA polymerase (Pyrococcus sp., UniProt Q51334, DEL493-1029); assay: as above; assay type: biochemical; conditions: modified nucleotide replaces dTTP at 100%; 72° C., 30 min
T2 construct: purchased
T2 sequence (Q51334 other isoform, or with tags, fused parts or gaps DEL493-1029): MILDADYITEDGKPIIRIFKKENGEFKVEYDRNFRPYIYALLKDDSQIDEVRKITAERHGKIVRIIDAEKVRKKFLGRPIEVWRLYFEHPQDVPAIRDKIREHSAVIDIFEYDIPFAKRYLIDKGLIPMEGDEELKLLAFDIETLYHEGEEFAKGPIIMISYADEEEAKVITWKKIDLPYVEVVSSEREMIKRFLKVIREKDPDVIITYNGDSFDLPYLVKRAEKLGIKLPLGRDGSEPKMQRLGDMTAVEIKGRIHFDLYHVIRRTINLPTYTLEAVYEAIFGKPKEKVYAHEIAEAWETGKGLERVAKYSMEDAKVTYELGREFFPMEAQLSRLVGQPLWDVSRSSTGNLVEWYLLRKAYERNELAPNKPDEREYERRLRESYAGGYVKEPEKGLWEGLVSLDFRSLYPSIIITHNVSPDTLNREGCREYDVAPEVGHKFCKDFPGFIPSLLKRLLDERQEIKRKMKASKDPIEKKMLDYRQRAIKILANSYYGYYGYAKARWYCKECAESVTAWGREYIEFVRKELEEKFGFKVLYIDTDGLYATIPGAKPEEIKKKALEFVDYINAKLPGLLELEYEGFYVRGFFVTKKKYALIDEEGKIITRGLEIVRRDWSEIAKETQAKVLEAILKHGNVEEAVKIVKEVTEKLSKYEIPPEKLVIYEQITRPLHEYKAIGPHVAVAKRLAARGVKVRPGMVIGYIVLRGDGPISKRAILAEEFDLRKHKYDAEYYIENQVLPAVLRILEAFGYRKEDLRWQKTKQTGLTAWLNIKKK
Method: as §1, §2, §3, §4, §5

MANTA polymerase [1] = target: T3, MANTA polymerase (Geobacillus stearothermophilus, UniProt P52026); assay: Incorporation of two modified nucleotides in one fill-in reaction, distribution detected by antibodies on hairpins; assay type: biochemical; set-up: Bst DNA Polymerase, Large Fragment (e.g., Manta®); purchased; conditions: iodo-dUTP 5 μM and pseudo-dUTP 95 μM replacing dTTP; anti-iodouridine and anti-pseudouridine antibodies
T3 sequence (P52026 289-876 limits assumed): T1 sequence (P52026 289-876 limits assumed)
Source text: After synthesis, the hairpin was assembled and assessed with both anti-iodouridine antibody and anti-pseudouridine antibody.
FIG. 4B: For each molecule, we counted the number of positions detected by either the anti-IdU or anti-pseudouridine over the expected total number of positions for this sequence. We then plotted the distribution of each modification for all the functional molecules.
One of the 50 long oligonucleotides described in Example 3 was used as a template to incorporate two different modified nucleotides at the same time. Both iodo-dUTP as well as pseudo-dUTP were included in the nucleotide mix (at 5 μM and 95 μM respectively) during the replication step to completely replace the natural base dTTP. After synthesis of the complementary strand, the hairpin was assembled and assessed with both anti-iodouridine antibody (clone OTI2F8 from Abcam) and anti-pseudouridine antibody (Cat. No. C15200236, Diagenode) (FIG. 4A).
The distribution of each modified base in the hairpin was determined for each modification (FIG. 4B).

MANTA polymerase [2] = target: T3, MANTA polymerase; assay: Measurement of the KD of modified uridine triphosphates, single-adenine template, FITC primer, PAGE; conditions: 65° C., 2 minutes; 100 μM dATP, dCTP, dGTP; no dTTP
Method: The reaction was supplemented with dATP, dCTP and dGTP as well as the uridine triphosphate tested (no dTTP was added to the reaction).
The KD is defined as the concentration of the modified dUTP required to produce 50% of fill in reaction. […] We then produced a second, simpler template comprising only one adenine in the template followed by 15 random bases excluding adenine (PS2972, SEQ ID NO:3). The template was designed such that the 3′ end of the complementary oligonucleotide tagged with FITC (PS1289, SEQ ID NO:4) ends at the base just before the adenine in the 32-base oligonucleotide. After annealing of these two oligonucleotides, there is thus only one A position where modified dUTP could be inserted (see FIG. 2A).
It was expected that if dCTP, dATP and dGTP were present in the reaction mix along with one of the modified uridine triphosphates, if the modified uridine was integrated by the polymerase, 16 bases would be added, thereby yielding a 32 base-long oligonucleotide tagged with FITC. […]
Polymerisation reactions were prepared with the Manta polymerase. […] Fluorescence of the reaction products were then quantified with ImageJ (National Institutes of Health).
For each modified uridine triphosphate, the ratio of fully extended product over the total amount of FITC-labelled oligonucleotide was calculated and plotted on a graph as a function of the concentration. […]

Row | Molecule | full length product in polymerisation reaction (Manta DNA polymerase) | full length product in polymerisation reaction (DeepVent DNA polymerase) | distribution of each modified base in the final hairpin (MANTA polymerase [1]) | KD (concentration of the modified dUTP required to produce 50% of fill in reaction) compared with dTTP (MANTA polymerase [2])
1 | O=c1[nH]c(=O)n([C@H]2C[C@H](O)[C@@H](COP(=O)(O)OP(=O)(O)OP(=O)(O)O)O2)cc1Cl [CldU, 5-chloro-2′-deoxyuridine-5′-triphosphate] | full length products were obtained | full length products were obtained | – | –
2 | O=c1[nH]c(=O)n([C@H]2C[C@H](O)[C@@H](COP(=O)(O)OP(=O)(O)OP(=O)(O)O)O2)cc1F [FdU, 5-fluoro-2′-deoxyuridine-5′-triphosphate] | full length products were obtained | full length products were obtained | – | –
3 | pseudouridine-5′-triphosphate | – | – | equal distribution | almost twice the KD of dTTP
